Assay results from PMC8779152, “A “Double-Locked” and Enzyme/pH-Activated Theranostic Agent for Accurate Tumor Imaging and Therapy” (Molecules, 2022).

Molecular target: HDAC1 (Homo sapiens, UniProt Q13547)
Test: HDAC1 enzyme inhibition (assay details not given)
Assay type: biochemical

Sequence of HDAC1 (Q13547 whole entry): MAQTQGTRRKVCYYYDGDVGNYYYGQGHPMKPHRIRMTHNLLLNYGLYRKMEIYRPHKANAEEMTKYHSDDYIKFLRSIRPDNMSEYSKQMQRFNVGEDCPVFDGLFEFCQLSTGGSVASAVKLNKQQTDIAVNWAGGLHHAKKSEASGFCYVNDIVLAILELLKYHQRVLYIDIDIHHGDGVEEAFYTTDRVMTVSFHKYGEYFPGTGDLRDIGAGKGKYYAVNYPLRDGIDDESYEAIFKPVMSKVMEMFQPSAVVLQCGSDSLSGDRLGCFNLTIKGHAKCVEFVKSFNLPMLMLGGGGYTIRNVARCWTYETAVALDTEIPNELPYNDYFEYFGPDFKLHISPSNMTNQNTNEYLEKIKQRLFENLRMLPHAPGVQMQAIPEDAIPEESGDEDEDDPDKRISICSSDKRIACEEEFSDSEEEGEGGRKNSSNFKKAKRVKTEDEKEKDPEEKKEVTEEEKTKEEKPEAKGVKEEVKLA

## O=C(NO)c1ccc(CNc2cc3c([nH]c4ccccc43)c(-c3ccc([N+](=O)[O-])cc3)n2)cc1 [H6M]
  IC50: 65 ± 6 nM

## Nc1ccc(-c2nc(NCc3ccc(C(=O)NO)cc3)cc3c2[nH]c2ccccc23)cc1 [H6AQ]
  IC50: 41 ± 5 nM
